Structures can show the parent of a compound that is named as a salt. Where two headings read alike, the source gives them in different places.
Experiments:
human opioid κ receptor = biological target: T1, human opioid κ receptor (Homo sapiens, UniProt P41145); test: Opioid receptor function test (Lance Ultra cAMP Kit), κ receptor; assay type: cell-based
T1 construct: host or cells: CHO cells
Protocol: (§1) Opioid Receptor Function Test
(§2) The functional activities of the compounds provided by the present invention on the μ, δ, and κ opioid receptors were investigated.
(§3) The test was performed by using Lance Ultra cAMP Kit (PerkinElmer) according to a method predetermined for the kit. In the evaluation of the agonistic activity, CHO cells expressing each of the human opioid receptors (δ, μ, and κ, accession numbers and catalog numbers are mentioned below) and 10 μM of each test compound were reacted for 30 minutes in an assay buffer (1×HESS, […], pH 7.4, […] (isobutylmethylxanthine), 7.5% BSA) in the presence of forskolin. Subsequently, the cAMP detection reagent included in the kit was added, and 1 hour afterward, time-resolved fluorescence measurement was performed by using the EnVision plate reader (PerkinElmer). The test compounds and the control drugs (δ: SNC80, μ: DAMGO, K: U-69593) were evaluated in a concentration range of 10^-12 to 10^-5 M, a dose-response curve of each test compound was obtained from the fluorescence values at 665 nm, and EC50 value and the Emax value were calculated. The Emax value was calculated as a ratio of the maximum reaction of the test compound to the maximum reaction of each control drug, which is taken as 100%.

human opioid μ receptor = biological target: T2, human opioid μ receptor (Homo sapiens, UniProt P35372); test: Opioid receptor function test (Lance Ultra cAMP Kit), μ receptor; assay type: cell-based; conditions: for EC50: CHO cells expressing human μ receptor, cAMP, N.C. = maximum reaction not reached at highest concentration (10 μM), not calculated, read-out: μ receptor EC° C.
T2 construct: host or cells: CHO cells
Protocol: as §1, §2, §3

hERG potassium channel = biological target: T3, hERG potassium channel (Homo sapiens, UniProt Q12809); test: hERG potassium channel inhibition test (automatic patch clamp); assay type: cell-based; conditions: for hERG channel inhibitory effect: hERG-expressing CHO cells
T3 construct: host or cells: CHO cells
Protocol: Human Ether-a-Go-Go Related Gene (hERG) Potassium Channel Inhibition Test
The test was performed with Port-a-Patch automatic patch clump apparatus (Manion Technologies) using hERG channel-stably expressing CHO cells (purchased from Channelopathy Foundation). The membrane potential of the cells was maintained at −80 mV, then there were applied a depolarization pulse at +20 mV for 1.5 seconds, and a following test pulse at −50 mV for 1.5 seconds at a frequency of 1 time per 10 seconds, and the hERG current was confirmed as a tail current induced by the test pulse. The test compound was dissolved in an extracellular fluid (137 mM NaCl, 4 mM KCl, 1.8 mM CaCl2, 1 mM MgCl2, 10 mM D(+)-glucose, 10 mM HEPES, pH 7.4), and the solution was […] at room temperature for 5 minutes. The inhibition ratio was obtained from the ratio of the tail current value observed after the compound was applied based on the tail current value observed before the compound was applied, which was taken as 100%.

human opioid δ receptor = biological target: T4, human opioid δ receptor (Homo sapiens, UniProt P41143); test: Opioid receptor function test (Lance Ultra cAMP Kit), δ receptor; assay type: cell-based; conditions: for EC50: CHO cells expressing human δ receptor, cAMP, in the presence of forskolin, read-out: δ receptor EC° C.; for Emax: ratio to maximum reaction of control drug SNC80 (100%)
T4 construct: host or cells: CHO cells
Protocol: as §1, §2, §3

[1] = Intracerebral migration test (concentration in cerebrospinal fluid and plasma); assay type: in vivo; conditions: male, Wistar, sc, rat, 3 mg/kg s.c., 30 minutes after administration
Protocol: Intracerebral Migration Test
A Wistar male 5-9 week old rat was used for the test. A test substance was dissolved in saline or a 4.5% cyclodextrin aqueous solution, and 1 mol/L hydrochloric acid (0.5 to 2.0 v/v %) was added thereto as necessary. The test substance was subcutaneously administered to the rat at a dose of 3 or 10 mg/kg. Thirty minutes later, cerebrospinal fluid was collected from the cisterna magna under isoflurane anesthesia. Subsequently, laparotomy was performed, and blood was collected from the vena cava. Thereafter, the blood was centrifuged at 1500×g at 4° C. for 15 minutes to obtain plasma. The animal was euthanized promptly by aortic cutting. The concentrations of the test substance in cerebrospinal fluid and plasma were measured using LC-MS/MS.

Wistar male rats = test: Rat elevated plus maze test; assay type: in vivo
Protocol: Rat Elevated Plus Maze Test
An anxiolytic effect of a compound provided by the present invention was examined using the rat elevated plus maze test.
For the test, 7 to 9 weeks old Wistar male rats were used. […] Each test substance was dissolved in a 4.5% aqueous solution of cyclodextrin, and orally administered 2 hours before the start of the test. The test data were automatically analyzed by using video image action analysis software (Smart3.0, PanLab S.L., PanLab), and wall-less running route staying time ratio (%) was calculated.

C57BL/6N male mice = test: Mouse elevated plus maze test; assay type: in vivo; conditions: 0.3 mg/kg subcutaneous administration, 30 minutes before test (FIG. 1)
Protocol: Mouse Elevated Plus Maze Test
For the test, 5 to 6 weeks old C57BL/6N male mice were used. On a plus maze apparatus consisting of a wall-less running route (open arm, width 6 cm, length 30 cm) and a running route with a wall (closed arm, width 6 cm, length 30 cm, height of wall 15 cm), and having a height of 40 cm, a mouse was put so as to be directed to the running route with a wall, and allowed to spontaneously enter into the plus maze. Each test substance was dissolved in saline or 0.005 N HCl in saline, and subcutaneously administered on the back 30 minutes before the start of the test. At the time of the start of the test, video recording with a video camera was started, the time at which the mouse entered into the plus maze is considered to be the start of the test, and exploratory behavior was recorded for 5 minutes. On the basis of the video image, staying time in the running routes were determined, and wall-less running route staying time ratio (%) was calculated.

[2] = read-out: κ receptor Emax (*reaction rate at the highest concentration, reference value)
[3] = read-out: μ receptor Emax (*reaction rate at the highest concentration, reference value)
[4] = ratio to maximum reaction of control drug DAMGO (100%), read-out: μ receptor Emax

T2 sequence (P35372 whole entry): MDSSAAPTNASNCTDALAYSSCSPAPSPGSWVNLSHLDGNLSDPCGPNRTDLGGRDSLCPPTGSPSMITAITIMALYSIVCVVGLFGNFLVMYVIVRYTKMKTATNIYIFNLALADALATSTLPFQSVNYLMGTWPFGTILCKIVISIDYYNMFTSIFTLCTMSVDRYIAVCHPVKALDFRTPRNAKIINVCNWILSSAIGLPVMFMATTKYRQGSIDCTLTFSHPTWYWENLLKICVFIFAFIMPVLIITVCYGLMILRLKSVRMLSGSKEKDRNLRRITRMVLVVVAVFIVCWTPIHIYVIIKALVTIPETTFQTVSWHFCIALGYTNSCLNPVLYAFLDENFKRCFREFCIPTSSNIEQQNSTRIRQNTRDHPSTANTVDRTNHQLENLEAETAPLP
T1 sequence (P41145 whole entry): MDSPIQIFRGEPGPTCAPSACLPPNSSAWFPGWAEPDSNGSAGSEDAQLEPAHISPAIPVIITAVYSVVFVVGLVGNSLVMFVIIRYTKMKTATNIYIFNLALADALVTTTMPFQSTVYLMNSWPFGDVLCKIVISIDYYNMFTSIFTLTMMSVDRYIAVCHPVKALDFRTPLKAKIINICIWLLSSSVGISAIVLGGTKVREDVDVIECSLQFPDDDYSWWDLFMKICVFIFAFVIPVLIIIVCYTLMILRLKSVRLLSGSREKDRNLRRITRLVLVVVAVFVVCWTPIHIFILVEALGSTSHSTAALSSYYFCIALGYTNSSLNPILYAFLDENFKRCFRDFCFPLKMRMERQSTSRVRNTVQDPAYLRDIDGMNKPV
T4 sequence (P41143 whole entry): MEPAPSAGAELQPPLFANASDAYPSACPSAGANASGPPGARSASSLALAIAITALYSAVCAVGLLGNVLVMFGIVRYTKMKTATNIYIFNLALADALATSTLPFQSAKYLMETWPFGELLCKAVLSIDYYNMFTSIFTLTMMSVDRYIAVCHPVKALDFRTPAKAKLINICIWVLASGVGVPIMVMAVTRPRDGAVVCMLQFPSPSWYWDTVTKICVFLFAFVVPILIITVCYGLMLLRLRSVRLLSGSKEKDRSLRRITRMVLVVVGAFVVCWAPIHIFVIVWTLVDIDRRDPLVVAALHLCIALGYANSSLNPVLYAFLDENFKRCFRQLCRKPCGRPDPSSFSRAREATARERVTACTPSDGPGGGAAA
T3 sequence (Q12809 whole entry): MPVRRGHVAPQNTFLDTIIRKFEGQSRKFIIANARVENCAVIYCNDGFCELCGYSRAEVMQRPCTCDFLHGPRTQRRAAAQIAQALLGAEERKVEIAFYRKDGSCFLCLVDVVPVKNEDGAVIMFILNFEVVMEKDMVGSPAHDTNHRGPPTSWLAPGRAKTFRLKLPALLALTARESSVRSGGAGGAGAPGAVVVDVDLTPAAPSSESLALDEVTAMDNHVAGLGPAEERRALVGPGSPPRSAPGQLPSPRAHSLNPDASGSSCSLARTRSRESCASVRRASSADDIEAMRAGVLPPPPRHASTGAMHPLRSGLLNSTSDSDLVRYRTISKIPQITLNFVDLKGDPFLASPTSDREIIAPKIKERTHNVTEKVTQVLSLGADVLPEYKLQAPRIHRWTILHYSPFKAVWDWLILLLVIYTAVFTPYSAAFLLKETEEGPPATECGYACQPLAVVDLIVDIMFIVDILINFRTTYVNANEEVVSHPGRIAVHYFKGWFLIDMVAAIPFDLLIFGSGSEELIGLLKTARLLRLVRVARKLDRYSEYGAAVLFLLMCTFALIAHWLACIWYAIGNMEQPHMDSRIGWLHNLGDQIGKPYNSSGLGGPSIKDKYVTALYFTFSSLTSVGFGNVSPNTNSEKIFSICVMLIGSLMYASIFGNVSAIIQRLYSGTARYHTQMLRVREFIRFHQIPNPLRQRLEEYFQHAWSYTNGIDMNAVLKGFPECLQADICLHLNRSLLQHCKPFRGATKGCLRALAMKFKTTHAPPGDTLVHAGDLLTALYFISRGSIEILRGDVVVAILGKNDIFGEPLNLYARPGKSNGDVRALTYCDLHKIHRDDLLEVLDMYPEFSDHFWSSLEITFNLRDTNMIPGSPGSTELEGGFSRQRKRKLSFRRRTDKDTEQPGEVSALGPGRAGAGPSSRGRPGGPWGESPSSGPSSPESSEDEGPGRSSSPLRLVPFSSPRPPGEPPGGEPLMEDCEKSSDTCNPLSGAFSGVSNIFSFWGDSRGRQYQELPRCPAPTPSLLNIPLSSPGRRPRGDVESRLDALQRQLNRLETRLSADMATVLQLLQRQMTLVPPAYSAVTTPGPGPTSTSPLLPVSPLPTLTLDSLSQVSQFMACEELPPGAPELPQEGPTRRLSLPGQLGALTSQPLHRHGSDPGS

Row | SMILES | Emax (human opioid κ receptor; [2]) [%] | Emax (human opioid μ receptor; [3]) [%] | hERG channel inhibitory effect (in words) (hERG potassium channel) | hERG channel inhibitory effect (hERG potassium channel; concentration 10 μM) [%] | EC50 (human opioid δ receptor) [nM] | Emax (human opioid δ receptor) [%] | further results
1 | O=C([C@H]1CCCN1)N1C[C@H]2C[C@@]34CC[C@@H]1[C@@H]2[C@@]31CCN(CC2CC2)[C@@H]4Cc2ccc(O)cc21 [Example 2, (1S,3aR,5aS,6R,11bR,11cS)-3-(D-prolyl)-14-(cyclopropylmethyl)-10-hydroxy-2,3,3a,4,5,6,7,11c-octahydro-1H-6,11b-(epiminoethano)-1,5a-methanonaphtho[1,2-e]indole dihydrochloride] | 3.8 | 3.8 | only a weak inhibitory effect | <50 | < 3 | 95 | 
2 | O=C([C@H]1CCCCN1)N1C[C@H]2C[C@@]34CC[C@@H]1[C@@H]2[C@@]31CCN(CC2CC2)[C@@H]4Cc2ccc(O)cc21 [Example 4, ((1S,3aR,5aS,6R,11bR,11cS)-14-(cyclopropylmethyl)-10-hydroxy-1,2,3a,4,5,6,7,11c-octahydro-3H-6,11b-(epiminoethano)-1,5a-methanonaphtho[1,2-e]indol-3-yl) ((R)-piperidin-2-yl) methanone dihydrochloride] | 5 | 0.87 | only a weak inhibitory effect | <50 | < 3 | 82 | 
3 | O=C([C@H]1CCCNC1)N1C[C@H]2C[C@@]34CC[C@@H]1[C@@H]2[C@@]31CCN(CC2CC2)[C@@H]4Cc2ccc(O)cc21 [Example 6, ((1S,3aR,5aS,6R,11bR,11cS)-14-(cyclopropylmethyl)-10-hydroxy-1,2,3a,4,5,6,7,11c-octahydro-3H-6,11b-(epiminoethano)-1,5a-methanonaphtho[1,2-e]indol-3-yl) ((S)-piperidin-3-yl) methanone dihydrochloride] |  | 5.5 |  |  | < 3 | 74 | EC50 (human opioid κ receptor): < 1 nM; Emax (human opioid κ receptor; read-out: κ receptor Emax): 11%
4 | CN1CCC[C@@H]1C(=O)N1C[C@H]2C[C@@]34CC[C@@H]1[C@@H]2[C@@]31CCN(CC2CC2)[C@@H]4Cc2ccc(O)cc21 [Example 9, (1S,3aR,5aS,6R,11bR,11cS)-14-(cyclopropylmethyl)-10-hydroxy-3-(methyl-D-prolyl)-2,3,3a,4,5,6,7,11c-octahydro-1H-6,11b-(epiminoethano)-1,5a-methanonaphtho[1,2-e]indol] | 3.7 | -0.6 |  |  | < 3 | 64 | 
5 | O=C([C@H]1CCCO1)N1C[C@H]2CC34CCC1C2C31CCN(CC2CC2)C4Cc2ccc(O)cc21 (stereo partly drawn) [Example 12, ((1S,3aR,5aS,6R,11bR,11cS)-14-(cyclopropylmethyl)-10-hydroxy-1,2,3a,4,5,6,7,11c-octahydro-3H-6,11b-(epiinoetano)-1,5a-methanonaphtho[1,2-e]indol-3-yl) ((R)-tetrahydrofuran-2-yl) methanone] | 8.7 |  |  |  | < 1 | 85 | concentration at 30 min ([1]; cerebrospinal fluid, read-out: Concentration in cerebrospinal fluid): 42 nM; concentration at 30 min ([1]; plasma, read-out: Concentration in plasma): 580 nM; EC50 (human opioid μ receptor): > 1 nM; Emax (human opioid μ receptor; [4]): 12%; minimum effective medicinal dose (Wistar male rats; rat elevated plus maze test, p. o.): 0.3 mg/kg; wall-less traveling path residence time rate (Wistar male rats; rat, 0.3 mg/kg oral administration, 2 hours before test (FIG. 2)): significantly increases; hERG channel inhibitory effect (hERG potassium channel; concentration 1 μM): <50%; wall-less traveling path residence time rate (C57BL/6N male mice): significantly increases
6 | O=C1CC[C@H](C(=O)N2C[C@H]3C[C@@]45CC[C@@H]2[C@@H]3[C@@]42CCN(CC3CC3)[C@@H]5Cc3ccc(O)cc32)O1 [Example 13, (R)-5-((1S,3aR,5aS,6R,11bR,11cS)-14-(cyclopropylmethyl)-10-hydroxy-2,3,3a,4,5,6,7,11c-octahydro-1H-6,11b-(epiminoethano)-1,5a-methanonaphtho[1,2-e]indole-3-carbonyl) dihydrofuran-2(3H)-one] |  |  |  |  | < 3 | 70 | EC50 (human opioid κ receptor; CHO cells expressing human κ receptor, cAMP, N.C. = maximum reaction not reached at highest concentration (10 μM), not calculated, read-out: κ receptor EC° C.): < 1 nM; Emax (human opioid κ receptor; ratio to maximum reaction of control drug U-69593 (100%), read-out: κ receptor Emax): 13%; EC50 (human opioid μ receptor): > 1 nM; Emax (human opioid μ receptor; [4]): 35%; hERG channel inhibitory effect (hERG potassium channel; concentration 1 μM): <50%
7 | O=C([C@H]1CCCO1)N1C[C@H]2CC34CCC1C2C31CCNC4Cc2ccc(O)cc21 (stereo partly drawn) [Example 14, ((1S,3aR,5aS,6R,11bR,11cS)-10-hydroxy-1,2,3a,4,5,6,7,11c-octahydro-3H-6,11b-(epiinoetano)-1,5a-methanonaphtho[1,2-e]indol-3-yl) ((R)-tetrahydrofuran-2-yl) methanone] |  |  | only a weak inhibitory effect | <50 |  |  | 
